Reference: article PMC8025741 (Journal of medicinal chemistry, 2020)
“Also recorded” adds a separate entry of the source. Structures can show the parent of a compound that is named as a salt. Where two headings read alike, the source gives them in different places.

Columns and labels:
[1] = stability studies and metabolite identification in mice and human microsomes; conditions: for metabolic stability (in words): mice and human microsomes
5XFAD mice = test: fear conditioning test in 5XFAD mice; assay type: in vivo, mouse; conditions: 5XFAD mice at 8 months, 10 mg/kg ip daily for 5 months, listed as 1 (PDDC)
[2] = in vitro metabolic stability, human liver microsomes; conditions: pH 7.4
[3] = cited from earlier work
[4] = cited from earlier work; remark: listed apart in the source

metabolic stability (in words) [1]	SMILES	further results
–	COc1cc(-c2nc(-c3cccs3)c(-c3ccccc3)[nH]2)cc(OC)c1O [DPTIP]	oral bioavailability (in words) [3]: not orally bioavailable; brain penetration (in words) ([3]; vs PDDC): poor brain penetration
metabolically unstable	COc1ccc(-c2c(C)nc3c(N4CCCC4)cc(C)nn23)cc1OC [Compound 76c, 3-(3,4-Dimethoxyphenyl)-2,6-dimethyl-8-(pyrrolidin-1-yl)imidazo[1,2-b]pyridazine]	–
generally stable	CCCCCC(=O)N[C@@H]1CCN(c2cc(C)nn3c(-c4ccc(OC)c(OC)c4)c(C)nc23)C1 [Compound 53, (R)-N-(1-(3-(3,4-Dimethoxyphenyl)-2,6-dimethylimidazo[1,2-b]pyridazin-8-yl)pyrrolidin-3-yl)hexanamide Hydrochloride]	–
generally stable	COc1ccc(-c2c(C)nc3c(N4CC[C@@H](NC(=O)C(F)(F)F)C4)cc(C)nn23)cc1OC [Compound 52, (R)-N-(1-(3-(3,4-Dimethoxyphenyl)-2,6-dimethylimidazo[1,2-b]pyridazin-8-yl)pyrrolidin-3-yl)-2,2,2-trifluoroacetamide]	–
reasonable metabolic stability	CC(=O)N[C@@H]1CCN(c2cc(C)nn3c(-c4ccc(OC(F)(F)F)cc4)c(C)nc23)C1 [Compound 47, (R)-N-(1-(2,6-Dimethyl-3-(4-(trifluoromethoxy)-phenyl)imidazo[1,2-b]pyridazin-8-yl)pyrrolidin-3-yl)acetamide]	–
generally stable	COc1ccc(-c2c(C)nc3c(N4CC[C@@H](NC(=O)Nc5ccccc5)C4)cc(C)nn23)cc1OC [Compound 59, (R)-1-(1-(3-(3,4-Dimethoxyphenyl)-2,6-dimethylimidazo[1,2-b]pyridazin-8-yl)pyrrolidin-3-yl)-3-phenylurea]	–
–	O=c1[nH]c(=S)[nH]c(-c2ccccc2)c1Cc1c(O)ccc2ccccc12 [cambinol]	metabolic stability (in words) [4]: poor metabolic stability

SMILES	metabolic stability (in words) [1]	further results
COc1ccc(-c2c(C)nc3c(N4CC[C@@H](NS(=O)(=O)C5CC5)C4)cc(C)nn23)cc1OC [Compound 66, (R)-N-(1-(3-(3,4-Dimethoxyphenyl)-2,6-dimethylimidazo[1,2-b]pyridazin-8-yl)pyrrolidin-3-yl)cyclopropanesulfonamide]	generally stable; also recorded: completely stable	–
COc1ccc(-c2c(C)nc3c(N4CC[C@@H](NC(=O)Oc5ccccc5)C4)cc(C)nn23)cc1OC [Compound 1, Phenyl(R)-(1-(3-(3,4-Dimethoxyphenyl)-2,6-dimethylimidazo[1,2-b]pyridazin-8-yl)pyrrolidin-3-yl)carbamate]	generally stable	contextual fear memory (freezing, day 2) (5XFAD mice): performed like WT controls; remaining at 1 h, 1 µM [2]: 103 ± 14%; metabolite identification (MET-ID) ([1]; human and mouse liver microsomes, Figure S1): O-demethylated metabolite
COc1ccc(-c2c(C)nc3c(N4CC[C@@H](NS(=O)(=O)c5cccs5)C4)cc(C)nn23)cc1OC [Compound 73, (R)-N-(1-(3-(3,4-Dimethoxyphenyl)-2,6-dimethylimidazo[1,2-b]pyridazin-8-yl)pyrrolidin-3-yl)thiophene-2-sulfonamide]	generally stable; also recorded: completely stable	–
